Measurements published in patent publication US20250084087A1, “BICYCLIC HETEROCYCLES AS MRGPRX2 ANTAGONISTS” (Incyte Corporation, priority 2023, published 2025).

Assays:
Format in all cases: cell-based
MRGPRX2 [1] = target: T1, MRGPRX2 (Homo sapiens, UniProt Q96LB1); test: MRGPRX2 β-Arrestin recruitment assay (PathHunter); design: host or cells: CHO-K1 (PathHunter); details: PathHunter CHO-K1 MRGPRX2 β-Arrestin cell line; agonist Cortistatin 14 0.25 μM
T1 sequence (Q96LB1 1-330): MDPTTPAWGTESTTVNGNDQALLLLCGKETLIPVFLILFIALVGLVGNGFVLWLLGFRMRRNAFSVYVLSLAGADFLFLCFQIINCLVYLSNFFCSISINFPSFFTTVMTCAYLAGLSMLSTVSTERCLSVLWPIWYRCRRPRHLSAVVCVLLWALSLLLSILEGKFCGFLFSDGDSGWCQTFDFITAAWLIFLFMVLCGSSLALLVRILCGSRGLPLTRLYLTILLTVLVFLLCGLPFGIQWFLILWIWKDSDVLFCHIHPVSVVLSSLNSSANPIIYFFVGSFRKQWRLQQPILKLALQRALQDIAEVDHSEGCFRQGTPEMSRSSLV
From the text: Example C: MRGPRX2 P-Arrestin Assay
This assay measures compound inhibition of P-Arrestin recruitment, which is part of the G protein-independent pathway that results from the ligand-activated GPCR phosphorylation by specific GPCR kinases. The PathHunter CHO-K1 MRPGRX2 B-Arrestin Cell line stably expressing ProLink tagged MRGPRX2 and Enzyme Acceptor Tagged B-Arrestin was purchased from Eurofins DiscoverX, (Fremont, CA).
The cells were maintained in culture medium from the Europhins DiscoverX Cell Culture Kit-107 which includes FBS, hygromycin B and G418. For the assay, the cells were harvested and were resuspended with Cell Plating Reagent 2 (Eurofins DiscoverX). Cells were added 10000 cells in 25 μL/well to a 384-well black cell culture plate (Greiner VWR, Radnor, PA) which contained 125 nL/well of compound at a selected serially diluted concentration range or DMSO. The plate was incubated at 37° C. with 5% CO2 for 1 h. 2 μL/well of agonist Cortistatin 14 was diluted in Protein Dilution Buffer, (Eurofins DiscoverX) for a final concentration of 0.25 μM, was added and the plate was incubated at 37° C. with 5% CO2 for 90 min. 14 μL/well of Detection Reagent Mix (PathHunter Detection Kit, Eurofins DiscoverX) was added to the plates and further incubated for 1 h in the dark. Plates were read on the PHERAstar microplate reader (BMG Labtech Cary, NC) measuring luminescence 0.1 to 1 second per well. Data was normalized using DMSO only wells and wells with high concentration of reference antagonist as controls. Compound IC50 curves were globally fitted with 3- or 4-parameter Hill equation in a Genedata Screener (Genedata Basel, Switzerland).

MRGPRX2 [2] = target: T1, MRGPRX2; test: MRGPRX2 FLIPR calcium mobilization assay; design: host or cells: CHO-K1; details: CHO-K1 cells stably expressing human MRGPRX2; Ca2+ release; agonist Cortistatin-14 at EC80
Method: Example A. MRGPRX2 FLIPR Calcium Mobilization Assay
Chinese hamster ovary (CHO-K1) cells stably expressing human MRGPRX2 were purchased from Genescript (Piscataway, NJ). The cells were maintained in culture medium (Ham's F-12K) containing 10% (v/v) FBS, 200 μg/mL Zeocin, 100 units/mL penicillin G and 100 μg/mL streptomycin (Life Technologies, Carlsbad, CA). For the assay, the cells were harvested and resuspended with culture medium without Zeocin before plating at 8000 cells per well in 20 μL in 384-well black clear bottom cell culture plates (VWR, Radnor, PA). After 24 hour culture at 37° C. and 5% CO2, the cells were loaded with 20 μL/well of calcium dye (FLIPR Calcium 6 Assay Kit, Molecular Devices, San Jose, CA) diluted in loading buffer (1× Hank's Balanced Salt Solution (HBSS), 5 mM probenecid, 20 mM 4-(2-hydroxyethyl)-1-piperazineethanesulfonic acid (HEPES), pH 7.4, VWR, Radnor, PA) followed with 45 min. incubation at 37° C. and 40 min. at r.t. in the dark. Cells were then treated with the addition of 10 uL/well test compounds with a range of increasing concentrations diluted in the assay buffer (1×HBSS, 20 mM HEPES, pH 7.4, VWR, Radnor, PA) with FLIPR Penta (Molecular Devices. San Jose, CA) and incubated for 30 min. at r.t. Ca^2+ release was measured with FLIPR Penta with 10 seconds basal fluorescence measurement, then 12.5 μL of 5× agonist Cortistatin-14 (Tocris, Minneapolis, MN) at final concentration corresponding to the EC80 were added followed with continued fluorescence signal monitoring for an additional 110 seconds. The base line adjusted (median of first 10s base line) max value of the Relative Fluorescence Unit (RFU) was plotted against compound concentrations. Wells with no compound were served as the positive controls, and wells with high concentration of reference antagonist were used as negative controls. IC50 curves were globally fitted with 3- or 4-parameter Hill equation in a Genedata Screener (Genedata Basel, Switzerland).

MRGPRX2 [3] = target: T1, MRGPRX2; test: MRGPRX2 IP1 HTRF assay; design: host or cells: CHO-K1; details: CHO-K1 cells stably expressing human MRGPRX2; IP1 accumulation; agonist Cortistatin 14 1 μM
From the text: Example B: MRGPRX2 IP1 HTRF Assay
This assay measures compound inhibition of myo-Inositol 1 phosphate (IP1) accumulation in CHO-K1 cells. Chinese hamster ovary (CHO-K1) cells stably expressing human MRGPRX2 were purchased from GenScript (Piscataway, NJ).
For the HTRF IP1 determination, an IP-One GqKit (Perkin Elmer Cisbio, Waltham, MA), which includes all reagents and buffers in this protocol, was used. The cells were maintained in culture medium (Ham's F-12K) containing 10% (v/v) FBS, and 200 μg/mL Zeocin. For the assay, the cells were harvested and resuspended in culture medium with 2% FBS and without Zeocin, then were passed through a 40 μm filter. Cells were added at 20000 cells in a 5 μL/well to a 384-well white small volume cell culture plate (Greiner VWR, Radnor, PA) which contained 50 nL/well of test compound serially diluted at a selected concentration range in DMSO. 5 μL/well of prepared 2× Stimulation Buffer2 was then added to plates and was incubated at 37° C. with 5% CO2 for 1 h. 5 μL/well of agonist Cortistatin 14 (Bio-TechneR&D Systems, Minneapolis, MN) in 1× Stimulation Buffer2, for a 1 μM final concentration, was then added to plates and incubated at 37° C. with 5% CO2 for 1 h. 6 μL/well of 1:20 diluted Detection Reagent Mix (d2 and Cryptate) was added to the plates and incubated for 1 h in the dark. Plates were read on the PHERAstar microplate reader (BMG Labtech Cary, NC) to determine the HTRF ratio of the acceptor and donor emission signals. The IP1 concentrations were calculated from a standard curve following the IP-One GQ kit instructions. Wells with DMSO only and wells with high concentration of reference antagonist were used as controls for normalization. Compound IC50 curves were globally fitted with 3- or 4-parameter Hill equation in a Genedata Screener (Genedata Basel, Switzerland).

Row | Compound | IC50 (MRGPRX2 [1]) | IC50 (MRGPRX2 [2]) | IC50 (MRGPRX2 [3])
1 | OC1CCC(CNc2cc(C(F)(F)F)nc3cc(Br)nn23)(c2ccccc2)C1 (racemic) [Example 84, 3-(((2-Bromo-5-(trifluoromethyl)pyrazolo[1,5-a]pyrimidin-7-yl)amino)methyl)-3-phenylcyclopentan-1-ol] | 0.1 to 100 nM | 0.1 to 100 nM | 
2 | Cn1nc(N2CCC(CNc3cc(C(F)(F)F)nc4cc(C(F)(F)F)nn34)(c3ccc(F)cc3)CC2)ccc1=O [Example 40, 6-(4-(((2,5-Bis(trifluoromethyl)pyrazolo[1,5-a]pyrimidin-7-yl)amino)methyl)-4-(4-fluorophenyl)piperidin-1-yl)-2-methylpyridazin-3(2H)-one] | 0.1 to 100 nM | 0.1 to 100 nM | 
3 | Cn1cc(N2CC(CNc3cc(C(F)(F)F)nc4cc(C(F)(F)F)nn34)(c3ccc(F)cc3)C2)nn1 [Example 46, N-((3-(4-Fluorophenyl)-1-(1-methyl-1H-1,2,3-triazol-4-yl)azetidin-3-yl)methyl)-2,5-bis(trifluoromethyl)pyrazolo[1,5-a]pyrimidin-7-amine] | 0.1 to 100 nM | 0.1 to 100 nM | 
4 | NC(=O)c1cccc(N2CC(CNc3cc(C(F)(F)F)nc4cc(C(F)(F)F)nn34)(c3ccc(F)cc3)C2)n1 [Example 47, 6-(3-(((2,5-Bis(trifluoromethyl)pyrazolo[1,5-a]pyrimidin-7-yl)amino)methyl)-3-(4-fluorophenyl)azetidin-1-yl)picolinamide] | 0.1 to 100 nM | 0.1 to 100 nM | 
5 | Cc1cc2nc(I)cc(NCC3(c4ccccc4)CCOC3)n2n1 (stereo not shown) [Example 78, 5-Iodo-2-methyl-N-((3-phenyltetrahydrofuran-3-yl)methyl)pyrazolo[1,5-a]pyrimidin-7-amine] |  | 100 to 1000 nM | 
6 | N#Cc1cc2nc(C(F)(F)F)cc(NCC3(n4cccn4)CN(S(N)(=O)=O)C3)n2n1 [Example 95, 3-(((2-Cyano-5-(trifluoromethyl)pyrazolo[1,5-a]pyrimidin-7-yl)amino)methyl)-3-(1H-pyrazol-1-yl)azetidine-1-sulfonamide] |  | 0.1 to 100 nM | 
7 | O=C(N[C@H]1CC[C@H](O)CC1)N1CC(CNc2cccc3nc(C(F)(F)F)cn23)(c2ccc(F)cc2)C1 [Example 102, 3-(4-Fluorophenyl)-N-((1r,4r)-4-hydroxycyclohexyl)-3-(((2-(trifluoromethyl)imidazo[1,2-a]pyridin-5-yl)amino)methyl)azetidine-1-carboxamide] | 0.1 to 100 nM |  | 0.1 to 100 nM
8 | [2H]C([2H])([2H])NC(=O)N1CC(CNc2cccc3nc(C(F)(F)F)nn23)(c2ccc(F)cc2)C1 [Example 103, 3-(4-Fluorophenyl)-N-(methyl-d3)-3-(((2-(trifluoromethyl)-[1,2,4]triazolo[1,5-a]pyridin-5-yl)amino)methyl)azetidine-1-carboxamide] | 0.1 to 100 nM |  | 0.1 to 100 nM
9 | CN(C)c1cc(NCC2(c3ccc(F)cc3)CN(S(N)(=O)=O)C2)n2nc(C(F)(F)F)cc2n1 [Example 105, 3-(((5-(Dimethylamino)-2-(trifluoromethyl)pyrazolo[1,5-a]pyrimidin-7-yl)amino)methyl)-3-(4-fluorophenyl)azetidine-1-sulfonamide] |  | 0.1 to 100 nM | 
10 | [2H]C([2H])([2H])c1cc(NCC2(c3ccc(F)cc3)CN(C(=O)NCC(F)(F)F)C2)n2nc(C(F)(F)F)cc2n1 [Example 109, 3-(4-Fluorophenyl)-3-(((5-(methyl-d3)-2-(trifluoromethyl)pyrazolo[1,5-a]pyrimidin-7-yl)amino)methyl)-N-(2,2,2-trifluoroethyl)azetidine-1-carboxamide] | 0.1 to 100 nM |  | 0.1 to 100 nM
11 | [2H]C([2H])([2H])c1cc(NCC2(c3ccc(F)cc3)CN(C(=O)NCC(F)F)C2)n2nc(C(F)(F)F)cc2n1 [Example 110, N-(2,2-Difluoroethyl)-3-(4-fluorophenyl)-3-(((5-(methyl-d3)-2-(trifluoromethyl)pyrazolo[1,5-a]pyrimidin-7-yl)amino)methyl)azetidine-1-carboxamide] | 0.1 to 100 nM |  | 0.1 to 100 nM
12 | [2H]C([2H])([2H])C([2H])([2H])c1cc(NCC2(c3ccc(F)cc3)CN(C(N)=O)C2)n2nc(C(F)(F)F)cc2n1 [Example 111, 3-(((5-(Ethyl-d5)-2-(trifluoromethyl)pyrazolo[1,5-a]pyrimidin-7-yl)amino)methyl)-3-(4-fluorophenyl)azetidine-1-carboxamide] | 0.1 to 100 nM |  | 0.1 to 100 nM
13 | [2H]C([2H])([2H])C([2H])([2H])c1cc(NCC2(c3ccc(F)cc3)CN(C(=O)N[C@H]3CC[C@H](O)CC3)C2)n2nc(C(F)(F)F)cc2n1 [Example 112, 3-(((5-(Ethyl-d5)-2-(trifluoromethyl)pyrazolo[1,5-a]pyrimidin-7-yl)amino)methyl)-3-(4-fluorophenyl)-N-((1r,4r)-4-hydroxycyclohexyl)azetidine-1-carboxamide] | 0.1 to 100 nM |  | 0.1 to 100 nM
14 | [2H]C([2H])([2H])C([2H])([2H])c1cc(NCC2(c3ccc(F)cc3)CN(C(=O)N[C@@H]3CC[C@@H](O)C3)C2)n2nc(C(F)(F)F)cc2n1 [Example 113, 3-(((5-(Ethyl-d5)-2-(trifluoromethyl)pyrazolo[1,5-a]pyrimidin-7-yl)amino)methyl)-3-(4-fluorophenyl)-N-((1R,3R)-3-hydroxycyclopentyl)azetidine-1-carboxamide] | 0.1 to 100 nM |  | 0.1 to 100 nM
